Measurements as given in PubChem BioAssay AID1259407 (Chemical Carcinogenesis Research Information System (CCRIS), 2018).
Active and inactive are the calls of the source. No rule for the calls is given here.

System: CCRIS mutagenicity, Ames/micronucleus/aberration tests
Experiment: CCRIS mutagenicity studies
[1] = Test System: AMES SALMONELLA TYPHIMURIUM, Strain/Indicator: TA98, Metabolic Activation: NONE, Method: PREINCUBATION
[2] = Test System: AMES SALMONELLA TYPHIMURIUM, Strain/Indicator: TA100, Metabolic Activation: NONE, Method: PREINCUBATION
[3] = Test System: AMES SALMONELLA TYPHIMURIUM, Strain/Indicator: TA100, Metabolic Activation: RAT, LIVER, S-9, AROCLOR 1254, Method: PREINCUBATION
[4] = Test System: AMES SALMONELLA TYPHIMURIUM, Strain/Indicator: TA98, Metabolic Activation: NONE, Method: STANDARD PLATE
[5] = Test System: AMES SALMONELLA TYPHIMURIUM, Strain/Indicator: TA98, Metabolic Activation: RAT, LIVER, S-9, AROCLOR 1254, Method: STANDARD PLATE
[6] = Test System: AMES SALMONELLA TYPHIMURIUM, Strain/Indicator: TA100, Metabolic Activation: NONE, Method: STANDARD PLATE
[7] = Test System: AMES SALMONELLA TYPHIMURIUM, Strain/Indicator: TA100, Metabolic Activation: RAT, LIVER, S-9, AROCLOR 1254, Method: STANDARD PLATE
[8] = Test System: AMES SALMONELLA TYPHIMURIUM, Strain/Indicator: TA1538, Metabolic Activation: NONE, Method: STANDARD PLATE
[9] = Test System: AMES SALMONELLA TYPHIMURIUM, Strain/Indicator: TA1538, Metabolic Activation: RAT, LIVER, S-9, AROCLOR 1254, Method: STANDARD PLATE

Measured: mutagenic call

COc1cccc(N)c1
inactive: End Point: IN VITRO CHROMOSOMAL ABERRATIONS, Test System: CHINESE HAMSTER OVARY CELLS, Metabolic Activation: RAT, LIVER, S-9, AROCLOR 1254 inactive; negative | Test System: AMES SALMONELLA TYPHIMURIUM, Strain/Indicator: TA98, Metabolic Activation: HAMSTER, LIVER, S-9, AROCLOR 1254, Method: PREINCUBATION inactive; negative | [1] inactive; negative | Test System: AMES SALMONELLA TYPHIMURIUM, Strain/Indicator: TA98, Metabolic Activation: RAT, LIVER, S-9, AROCLOR 1254, Method: PREINCUBATION inactive; negative | Test System: AMES SALMONELLA TYPHIMURIUM, Strain/Indicator: TA100, Metabolic Activation: HAMSTER, LIVER, S-9, AROCLOR 1254, Method: PREINCUBATION inactive; negative | [2] inactive; negative | [3] inactive; negative | Test System: AMES SALMONELLA TYPHIMURIUM, Strain/Indicator: TA102, Metabolic Activation: NONE, Method: STANDARD PLATE inactive; negative | Test System: AMES SALMONELLA TYPHIMURIUM, Strain/Indicator: TA1535, Metabolic Activation: HAMSTER, LIVER, S-9, AROCLOR 1254, Method: PREINCUBATION inactive; negative | Test System: AMES SALMONELLA TYPHIMURIUM, Strain/Indicator: TA1535, Metabolic Activation: NONE, Method: PREINCUBATION inactive; negative | Test System: AMES SALMONELLA TYPHIMURIUM, Strain/Indicator: TA1535, Metabolic Activation: RAT, LIVER, S-9, AROCLOR 1254, Method: PREINCUBATION inactive; negative | Test System: AMES SALMONELLA TYPHIMURIUM, Strain/Indicator: TA1537, Metabolic Activation: HAMSTER, LIVER, S-9, AROCLOR 1254, Method: PREINCUBATION inactive; negative | Test System: AMES SALMONELLA TYPHIMURIUM, Strain/Indicator: TA1537, Metabolic Activation: NONE, Method: PREINCUBATION inactive; negative | Test System: AMES SALMONELLA TYPHIMURIUM, Strain/Indicator: TA1537, Metabolic Activation: RAT, LIVER, S-9, AROCLOR 1254, Method: PREINCUBATION inactive; negative | Test System: AMES SALMONELLA TYPHIMURIUM, Strain/Indicator: TA2638, Metabolic Activation: NONE, Method: STANDARD PLATE inactive; negative | Test System: E. COLI, Strain/Indicator: WP2 (PKM101), Metabolic Activation: NONE, Method: STANDARD PLATE inactive; negative | Test System: E. COLI, Strain/Indicator: WP2 UVRA (PKM101), Metabolic Activation: NONE, Method: STANDARD PLATE inactive; negative
active: End Point: IN VITRO CHROMOSOMAL ABERRATIONS, Test System: CHINESE HAMSTER OVARY CELLS, Metabolic Activation: NONE active; positive

CC(=O)N(O)c1ccc(/C=C/c2ccccc2)cc1
active: Test System: AMES SALMONELLA TYPHIMURIUM, Strain/Indicator: TA98, Metabolic Activation: RAT, LIVER, CYTOSOL, Method: PREINCUBATION active; positive | Test System: AMES SALMONELLA TYPHIMURIUM, Strain/Indicator: TA98, Metabolic Activation: RAT, LIVER, MICROSOMES, Method: PREINCUBATION active; positive | Test System: CHINESE HAMSTER V-79, Strain/Indicator: V-79/6-THIOGUANINE, Metabolic Activation: NONE, Method: STANDARD PLATE active; positive
inactive: [1] inactive; negative

NC(=O)c1nnn(Cc2cc(Cl)c(C(=O)c3ccc(Cl)cc3)c(Cl)c2)c1N
inactive: Test System: Mouse lymphoma, Strain/Indicator: L5178Y (tk+/tk-), Metabolic Activation: None, Method: Suspension/plate inactive; inconclusive (previous evaluation negative) | Test System: Mouse lymphoma, Strain/Indicator: L5178Y (tk+/tk-), Metabolic Activation: Rat, Liver, S-9, Aroclor 1254, Method: Suspension/plate inactive; negative

O/C=C/Cc1ccc2c(c1)OCO2
active: Test System: UDS HUMAN FIBROBLASTS, Strain/Indicator: THY INCORP (NON-S-PHASE), Metabolic Activation: NONE, Method: AUTORADIOGRAPHY active; positive

CCCCCCCCCCSCn1cc[n+](C)c1
inactive: [4] inactive; negative | [5] inactive; negative | [6] inactive; negative | Test System: AMES SALMONELLA TYPHIMURIUM, Strain/Indicator: TA1535, Metabolic Activation: NONE, Method: STANDARD PLATE inactive; negative | Test System: AMES SALMONELLA TYPHIMURIUM, Strain/Indicator: TA1537, Metabolic Activation: NONE, Method: STANDARD PLATE inactive; negative | Test System: AMES SALMONELLA TYPHIMURIUM, Strain/Indicator: TA1537, Metabolic Activation: RAT, LIVER, S-9, AROCLOR 1254, Method: STANDARD PLATE inactive; negative | [8] inactive; negative | [9] inactive; negative
active: [7] active; positive | Test System: AMES SALMONELLA TYPHIMURIUM, Strain/Indicator: TA1535, Metabolic Activation: RAT, LIVER, S-9, AROCLOR 1254, Method: STANDARD PLATE active; positive

Nc1ncnc2c1ncn2/C=C/C=O
active: Test System: AMES SALMONELLA TYPHIMURIUM, Strain/Indicator: HISD3052, Metabolic Activation: NONE, Method: STANDARD PLATE active; positive

Nc1ccc2cc(S(=O)(=O)O)c(N=Nc3ccc(N=Nc4ccc(NCCO)cc4NCCO)cc3OCCO)c(O)c2c1
inactive: [4] inactive; negative | [6] inactive; negative | [7] inactive; negative | [8] inactive; negative
active: [5] active; positive | [9] active; positive

Cc1ccc([N+](=O)[O-])c(S(=O)(=O)O)c1[N+](=O)[O-]
inactive: End Point: In vitro chromosomal aberrations, Test System: V79 Chinese hamster fibroblasts, Metabolic Activation: None inactive; negative | Test System: Ames Salmonella typhimurium, Strain/Indicator: TA98, Metabolic Activation: None, Method: Standard plate inactive; negative | Test System: Ames Salmonella typhimurium, Strain/Indicator: TA98, Metabolic Activation: Rat, Liver, S-9, Method: Standard plate inactive; negative | Test System: Ames Salmonella typhimurium, Strain/Indicator: TA100, Metabolic Activation: None, Method: Standard plate inactive; negative | Test System: Ames Salmonella typhimurium, Strain/Indicator: TA100, Metabolic Activation: Rat, Liver, S-9, Method: Standard plate inactive; negative

O=C/C=C/c1ccc([N+](=O)[O-])o1
active: Test System: AMES SALMONELLA TYPHIMURIUM, Strain/Indicator: TA98(1,8-DNP6), Metabolic Activation: NONE, Method: STANDARD PLATE active; positive | Test System: AMES SALMONELLA TYPHIMURIUM, Strain/Indicator: TA98(1,8-DNP6), Metabolic Activation: RAT, LIVER, S-9, 3-METHYLCHOLANTHRENE, Method: STANDARD PLATE active; positive | Test System: AMES SALMONELLA TYPHIMURIUM, Strain/Indicator: TA98(NR), Metabolic Activation: NONE, Method: STANDARD PLATE active; positive | Test System: AMES SALMONELLA TYPHIMURIUM, Strain/Indicator: TA98(NR), Metabolic Activation: RAT, LIVER, S-9, 3-METHYLCHOLANTHRENE, Method: STANDARD PLATE active; positive | [4] active; positive | Test System: AMES SALMONELLA TYPHIMURIUM, Strain/Indicator: TA98, Metabolic Activation: RAT, LIVER, S-9, 3-METHYLCHOLANTHRENE, Method: STANDARD PLATE active; positive | Test System: AMES SALMONELLA TYPHIMURIUM, Strain/Indicator: TA100(1,8-DNP6), Metabolic Activation: NONE, Method: PREINCUBATION active; positive | Test System: AMES SALMONELLA TYPHIMURIUM, Strain/Indicator: TA100(1,8-DNP6), Metabolic Activation: RAT, LIVER, S-9, AROCLOR 1254, Method: PREINCUBATION active; positive | Test System: AMES SALMONELLA TYPHIMURIUM, Strain/Indicator: TA100(NR), Metabolic Activation: NONE, Method: PREINCUBATION active; positive | Test System: AMES SALMONELLA TYPHIMURIUM, Strain/Indicator: TA100(NR), Metabolic Activation: RAT, LIVER, S-9, AROCLOR 1254, Method: PREINCUBATION active; positive | [2] active; positive | [3] active; positive
